Test results from patent US20060128792A1, “Deguelin as a chemopreventive agent for lung cancer” (priority 2002, published 2006).
Where “and” joins values, the source holds several entries; their conditions need not be identical. Identical values can stand only once.

Legend:
Test in all cases: MTT assay, growth inhibition by deguelin or deguelin derivatives
Assay type in all cases: cell-based
Details in all cases: 3 days; for % control: control = 1
H1299 = system: H1299
H596 = system: H596
H460 = system: H460
A549 = system: A549

COc1cc2c(cc1OC)C1C(=O)c3ccc4c(c3OC1CO2)CCC(C)(C)O4 (stereo not drawn) [Drug 11]
Average (MTT assay reading) (H1299; H1299, 0.01 μM): 0.5019 | MTT assay reading, replicate well (H1299; H1299, 0.01 μM): 0.573 and 0.553 and 0.567 and 0.483 and 0.493 and 0.424 and 0.42 | % control (H1299; H1299, 0.01 μM): 0.65 | Average (MTT assay reading) (H1299; H1299, 0.1 μM): 0.2847 | MTT assay reading, replicate well (H1299; H1299, 0.1 μM): 0.302 and 0.338 and 0.317 and 0.271 and 0.215 and 0.272 and 0.278 | % control (H1299; H1299, 0.1 μM): 0.37 | Average (MTT assay reading) (H1299; H1299, 0.5 μM): 0.3656 | MTT assay reading, replicate well (H1299; H1299, 0.5 μM): 0.275 and 0.579 and 0.324 and 0.32 and 0.398 and 0.294 and 0.369 | % control (H1299; H1299, 0.5 μM): 0.48 | Average (MTT assay reading) (H1299; H1299, 1 μM): 0.2179 | MTT assay reading, replicate well (H1299; H1299, 1 μM): 0.157 and 0.202 and 0.236 and 0.233 and 0.217 and 0.262 and 0.218 | % control (H1299; H1299, 1 μM): 0.28 | Average (MTT assay reading) (H596; H596, 0.01 μM): 1.262 | MTT assay reading, replicate well (H596; H596, 0.01 μM): 1.286 and 1.422 and 1.376 and 1.041 and 1.247 and 1.293 and 1.168 | % control (H596; H596, 0.01 μM): 0.76 | Average (MTT assay reading) (H596; H596, 0.1 μM): 0.6487 | MTT assay reading, replicate well (H596; H596, 0.1 μM): 0.677 and 0.894 and 0.729 and 0.59 and 0.476 and 0.579 and 0.596 | % control (H596; H596, 0.1 μM): 0.39 | Average (MTT assay reading) (H596; H596, 0.5 μM): 0.4131 | MTT assay reading, replicate well (H596; H596, 0.5 μM): 0.469 and 0.448 and 0.439 and 0.322 and 0.282 and 0.424 and 0.508 | % control (H596; H596, 0.5 μM): 0.25 | Average (MTT assay reading) (H596; H596, 1 μM): 0.4389 | MTT assay reading, replicate well (H596; H596, 1 μM): 0.385 and 0.377 and 0.447 and 0.585 and 0.404 and 0.429 and 0.445 | % control (H596; H596, 1 μM): 0.26 | Average (MTT assay reading) (H460; H460, 0.01 μM): 0.6664 | MTT assay reading, replicate well (H460; H460, 0.01 μM): 0.67 and 0.672 and 0.578 and 0.697 and 0.719 and 0.651 and 0.678 | % control (H460; H460, 0.01 μM): 0.57 | Average (MTT assay reading) (H460; H460, 0.1 μM): 0.3214 | MTT assay reading, replicate well (H460; H460, 0.1 μM): 0.352 and 0.354 and 0.375 and 0.234 and 0.26 and 0.303 and 0.372 | % control (H460; H460, 0.1 μM): 0.27 | Average (MTT assay reading) (H460; H460, 0.5 μM): 0.3358 | MTT assay reading, replicate well (H460; H460, 0.5 μM): 0.372 and 0.35 and 0.36 and 0.296 and 0.2577 and 0.283 and 0.432 | % control (H460; H460, 0.5 μM): 0.29 | Average (MTT assay reading) (H460; H460, 1 μM): 0.3296 | MTT assay reading, replicate well (H460; H460, 1 μM): 0.314 (2×) and 0.376 and 0.344 and 0.302 and 0.291 and 0.366 | % control (H460; H460, 1 μM): 0.28 | Average (MTT assay reading) (A549; A549, 0.01 μM): 0.7456 | MTT assay reading, replicate well (A549; A549, 0.01 μM): 0.779 and 0.766 and 0.723 and 0.736 and 0.77 and 0.75 and 0.695 | % control (A549; A549, 0.01 μM): 1.29 | Average (MTT assay reading) (A549; A549, 0.1 μM): 0.3701 | MTT assay reading, replicate well (A549; A549, 0.1 μM): 0.343 and 0.313 and 0.358 and 0.362 and 0.405 and 0.375 and 0.435 | % control (A549; A549, 0.1 μM): 0.64 | Average (MTT assay reading) (A549; A549, 0.5 μM): 0.4303 | MTT assay reading, replicate well (A549; A549, 0.5 μM): 0.355 and 0.444 and 0.514 and 0.418 and 0.47 and 0.413 and 0.398 | % control (A549; A549, 0.5 μM): 0.75 | Average (MTT assay reading) (A549; A549, 1 μM): 0.345 | MTT assay reading, replicate well (A549; A549, 1 μM): 0.303 and 0.302 and 0.313 and 0.359 and 0.422 and 0.316 and 0.4 | % control (A549; A549, 1 μM): 0.60
